For 26 molecules, EC50 and CC50 results are on record in patent publication US11247965B2 (VenatoRx Pharmaceuticals, Inc., priority 2017, dated 2022).

Broadly, the EC50 is the midpoint of the concentration-response curve. Broadly, the CC50 is the concentration at which the toxic effect on the cells reaches its halfway point. A low value points to harm at low concentration.

Some results are limits rather than exact numbers.

Data set [1] concerns HBV replication in HepAD38 cells. Kind of data set: Anti-HBV activity in HepAD38 cells, extracellular HBV DNA by QPCR. In kind it is cell-based, HBV (genotype D, serotype ayw). The conditions noted are these: Hepatitis B virus, HePAD38, 168 h, read-out: Anti-HBV EC50, HepAD38 cells, extracellular HBV DNA by QPCR, 7 days of incubation. The method in brief:
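HepAD38 cells (HepG2 with tet-repressible HBV genotype D genome) seeded overnight, tetracycline removed, then treated 7 days with compounds (half-log dilutions, 30 μM–10 nM; 1:200 from DMSO). Supernatant HBV DNA quantified by QPCR against standard curve; % inhibition vs vehicle, EC50 by 4-parameter fit.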

Data set [2] in a line: In vitro cytotoxicity, MTT cell viability assay in HepG2 cells. In kind it is cell-based. The conditions noted are these: human, Cytotoxicity CC50. The method in brief: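 HepG2 seeded overnight, then 7-day compound exposure (30 μM–1.0 nM, half-log steps), 37 °C. MTT 3-4 h, DMSO solubilization, A492. % of vehicle → CC50, 4-PL fit.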

On to `Cc1cc(NC(=O)c2ccc(F)c(C(F)(F)C(=O)N3C4CCCC3c3sc(N)nc3C4)c2)ccc1F` (stereo not shown) [Example 342, 3-(2-(2-amino-4,5,6,7,8,9-hexahydro-5,9-epiminocycloocta[d]thiazol-10-yl)-1,1-difluoro-2-oxoethyl)-4-fluoro-N-(4-fluoro-3-methylphenyl)benzamide], for which the EC50 in data set [1] was less than 5 µM. The same molecule returned a CC50 at 7 days in data set [2] greater than 30 µM.

Consider `NC(=O)c1cc(NC(=O)c2ccc(Cl)c(C(F)(F)C(=O)N3CCC(O)CC3)c2)ccc1F` [Example 60, N-(3-carbamoyl-4-fluorophenyl)-4-chloro-3-(1,1-difluoro-2-(4-hydroxypiperidin-1-yl)-2-oxoethyl)benzamide], for which the 50% effective concentration (EC50) in data set [1] is 5 to 30 µM. Also, in data set [2], the cytotoxic concentration (CC50) at 7 days was greater than 30 µM.

Turning to `Cc1cc(NC(=O)c2ccc(F)c(C(F)(F)C(=O)N3CCc4nc(N)sc4C3)c2)ccc1F` [Example 242, 3-(2-(2-amino-6,7-dihydrothiazolo[5,4-c]pyridin-5(4H)-yl)-1,1-difluoro-2-oxoethyl)-4-fluoro-N-(4-fluoro-3-methylphenyl)benzamide], the EC50 in data set [1] is less than 5 µM. Moreover, the CC50 at 7 days in data set [2] fell in the range of 5 to 30 µM.

For the molecule `Cc1cc(NC(=O)c2ccc(F)c(C(F)(F)C(=O)N3CCC(O)CC3)n2)ccc1F` [Example 300, 6-(1,1-difluoro-2-(4-hydroxypiperidin-1-yl)-2-oxoethyl)-5-fluoro-N-(4-fluoro-3-methylphenyl)picolinamide], the EC50 in data set [1] was less than 5 µM. In data set [2], the CC50 at 7 days was 5 to 30 µM.

As to `O=C(Nc1ccc(F)c(F)c1)c1ccc(F)c(C(F)(F)C(=O)N2CCCC(O)C2)c1` (stereo not shown) [Example 15, 3-(1,1-difluoro-2-(3-hydroxypiperidin-1-yl)-2-oxoethyl)-N-(3,4-difluorophenyl)-4-fluorobenzamide], the EC50 in data set [1] is less than 5 µM. This molecule returned a CC50 at 7 days in data set [2] of 5 to 30 µM.

On to `Cc1cc(NC(=O)c2cccc(C(F)(F)C(=O)N3[C@@H]4CC[C@H]3C[C@H](O)C4)c2F)ccc1F` [Example 207, 3-(1,1-difluoro-2-((1R,3s,5S)-3-hydroxy-8-azabicyclo[3.2.1]octan-8-yl)-2-oxoethyl)-2-fluoro-N-(4-fluoro-3-methylphenyl)benzamide], for which the EC50 in data set [1] is less than 5 µM. The molecule also came in with a CC50 at 7 days in data set [2] of 5 to 30 µM.

Turning to `O=C(Nc1ccc(F)c(F)c1)c1ccc(F)c(C(F)(F)C(=O)NCc2ccc(O)cc2)c1` [Example 65, 3-(1,1-difluoro-2-((4-hydroxybenzyl)amino)-2-oxoethyl)-N-(3,4-difluorophenyl)-4-fluorobenzamide], the EC50 in data set [1] was 5 to 30 µM. The CC50 at 7 days in data set [2] lay within 5 to 30 µM.

Consider `COC(=O)N1C[C@H]2COC[C@@H](C1)N2C(=O)C(F)(F)c1cc(C(=O)Nc2ccc(F)c(C)c2)ccc1F` [Example 239, methyl (1R,5S)-9-(2,2-difluoro-2-(2-fluoro-5-((4-fluoro-3-methylphenyl)carbamoyl)phenyl)acetyl)-3-oxa-7,9-diazabicyclo[3.3.1]nonane-7-carboxylate], for which the EC50 in data set [1] was less than 5 µM. Also, the CC50 at 7 days in data set [2] fell in the range of 5 to 30 µM.

On to `O=C(Nc1ccc(F)cc1)c1ccc(Cl)c(C(F)(F)C(=O)N2CCC(O)CC2)c1` [Example 36, 4-chloro-3-(1,1-difluoro-2-(4-hydroxypiperidin-1-yl)-2-oxoethyl)-N-(4-fluorophenyl)benzamide], for which the EC50 in data set [1] was less than 5 µM. In data set [2], the CC50 at 7 days was greater than 30 µM.

As to `N#Cc1cc(NC(=O)c2ccc(F)c(C(F)(F)C(=O)N3CCC(O)CC3)c2)ccc1F` [Example 88, N-(3-cyano-4-fluorophenyl)-3-(1,1-difluoro-2-(4-hydroxypiperidin-1-yl)-2-oxoethyl)-4-fluorobenzamide], in data set [1], the EC50 is less than 5 µM. The same molecule returned a CC50 at 7 days in data set [2] greater than 30 µM.

As for `CCn1cc(C(=O)Nc2ccc(F)c(C)c2)cc1C(F)(F)C(=O)NC(C)(C)C` [Example 134, 5-(2-(tert-butylamino)-1,1-difluoro-2-oxoethyl)-1-ethyl-N-(4-fluoro-3-methylphenyl)-1H-pyrrole-3-carboxamide], in data set [1], the EC50 is less than 5 µM. The molecule also gave a CC50 at 7 days in data set [2] greater than 30 µM.

Consider `Cc1cc(NC(=O)c2cc(C(F)(F)C(=O)N3CCC(O)CC3)ccc2F)ccc1F` [Example 90, 5-(1,1-difluoro-2-(4-hydroxypiperidin-1-yl)-2-oxoethyl)-2-fluoro-N-(4-fluoro-3-methylphenyl)benzamide], for which, in data set [1], the EC50 was less than 5 µM. The molecule also had a CC50 at 7 days in data set [2] of 5 to 30 µM.

`Cc1cc(NC(=O)c2ccc(F)c(C(F)(F)C(=O)N3CCC(O)(CO)CC3)c2)ccc1F` [Example 75, 3-(1,1-difluoro-2-(4-hydroxy-4-(hydroxymethyl)piperidin-1-yl)-2-oxoethyl)-4-fluoro-N-(4-fluoro-3-methylphenyl)benzamide]: the EC50 in data set [1] is less than 5 µM. In data set [2], this molecule registered a CC50 at 7 days of 5 to 30 µM.

On to `Cc1cc(NC(=O)c2ccc(F)c(C(F)(F)C(=O)N3CCC(O)C(F)(F)C3)c2)cc(F)n1` (stereo not shown) [Example 251, 3-(2-(3,3-difluoro-4-hydroxypiperidin-1-yl)-1,1-difluoro-2-oxoethyl)-4-fluoro-N-(2-fluoro-6-methylpyridin-4-yl)benzamide], for which the EC50 in data set [1] was 5 to 30 µM. The same molecule showed a CC50 at 7 days in data set [2] of 5 to 30 µM.

With `Cc1cc(NC(=O)c2ccc(F)c(C(F)(F)C(=O)NC3(C#N)CC3)c2)ccc1F` [Example 236, 3-(2-((1-cyanocyclopropyl)amino)-1,1-difluoro-2-oxoethyl)-4-fluoro-N-(4-fluoro-3-methylphenyl)benzamide], the EC50 in data set [1] lay within 5 to 30 µM. In data set [2], the CC50 at 7 days is greater than 30 µM.

Turning to `Cc1cc(NC(=O)c2ccc(C(F)(F)C(=O)N3CCC(O)CC3)n2C)ccc1F` [Example 99, 5-(1,1-difluoro-2-(4-hydroxypiperidin-1-yl)-2-oxoethyl)-N-(4-fluoro-3-methylphenyl)-1-methyl-1H-pyrrole-2-carboxamide], the EC50 in data set [1] was greater than 30 µM. Besides, the CC50 at 7 days in data set [2] was greater than 30 µM.

On to `Cc1cc(NC(=O)c2ccc(F)c(C(F)(F)C(=O)N3CCC(NC(=O)CC4CCOCC4)CC3)c2)ccc1F` [Example 232, 3-(1,1-difluoro-2-oxo-2-(4-(2-(tetrahydro-2H-pyran-4-yl)acetamido)piperidin-1-yl)ethyl)-4-fluoro-N-(4-fluoro-3-methylphenyl)benzamide], for which, in data set [1], the EC50 is less than 5 µM. Besides, the CC50 at 7 days in data set [2] was in the range of 5 to 30 µM.

Turning to `Cc1cc(NC(=O)c2csc(C(F)(F)C(=O)N3CCC(O)CC3)n2)ccc1F` [Example 30, 2-(1,1-difluoro-2-(4-hydroxypiperidin-1-yl)-2-oxoethyl)-N-(4-fluoro-3-methylphenyl)thiazole-4-carboxamide], in data set [1], the EC50 fell in the range of 5 to 30 µM. The same molecule showed a CC50 at 7 days in data set [2] of 5 to 30 µM.

On to `CC(=O)N1[C@H](C)CN(C(=O)C(F)(F)c2cc(C(=O)Nc3ccc(F)c(C)c3)ccc2F)C[C@@H]1C` [Example 295, 3-(2-((3R,5S)-4-acetyl-3,5-dimethylpiperazin-1-yl)-1,1-difluoro-2-oxoethyl)-4-fluoro-N-(4-fluoro-3-methylphenyl)benzamide], for which the EC50 in data set [1] is less than 5 µM. The CC50 at 7 days in data set [2] was in the range of 5 to 30 µM.

In the case of `Cc1cc(NC(=O)c2ccc(F)c(C(F)(F)C(=O)NCB3O[C@@H]4C[C@@H]5C[C@@H](C5(C)C)[C@]4(C)O3)c2)ccc1F` [Example 149, 3-(1,1-difluoro-2-oxo-2-((((3aS,4S,6S,7aR)-3a,5,5-trimethylhexahydro-4,6-methanobenzo[d][1,3,2]dioxaborol-2-yl)methyl)amino)ethyl)-4-fluoro-N-(4-fluoro-3-methylphenyl)benzamide], the EC50 in data set [1] is less than 5 µM. This molecule also displayed a CC50 at 7 days in data set [2] of 5 to 30 µM.

With `Cc1cc(NC(=O)c2ccc(Br)c(C(F)(F)C(=O)N3CCC(O)CC3)c2)ccc1F` [Example 62, 4-bromo-3-(1,1-difluoro-2-(4-hydroxypiperidin-1-yl)-2-oxoethyl)-N-(4-fluoro-3-methylphenyl)benzamide], the EC50 in data set [1] was less than 5 µM. In data set [2], the CC50 at 7 days is greater than 30 µM.

On to `O=C(Nc1ccc(F)c(Br)c1)c1ccc(F)c(C(F)(F)C(=O)N2CCC(O)(CO)CC2)c1` [Example 190, N-(3-bromo-4-fluorophenyl)-3-(1,1-difluoro-2-(4-hydroxy-4-(hydroxymethyl)piperidin-1-yl)-2-oxoethyl)-4-fluorobenzamide], for which the EC50 in data set [1] was less than 5 µM. Also, the CC50 at 7 days in data set [2] was in the range of 5 to 30 µM.

Take `Cc1cc(NC(=O)c2ccc(F)c(C(F)(F)C(=O)N3[C@@H]4CCC[C@H]3CC(=O)C4)c2)ccc1F` [Example 200, 3-(1,1-difluoro-2-oxo-2-((1R,5S)-3-oxo-9-azabicyclo[3.3.1]nonan-9-yl)ethyl)-4-fluoro-N-(4-fluoro-3-methylphenyl)benzamide]: the EC50 in data set [1] was less than 5 µM. Also, the CC50 at 7 days in data set [2] was 5 to 30 µM.

Consider `O=C(Nc1ccc(F)c(F)c1)c1ccc(F)c(C(F)(F)C(=O)N(CCO)CCO)c1` [Example 16, 3-(2-(bis(2-hydroxyethyl)amino)-1,1-difluoro-2-oxoethyl)-N-(3,4-difluorophenyl)-4-fluorobenzamide], for which the EC50 in data set [1] was 5 to 30 µM. This molecule also registered a CC50 at 7 days in data set [2] greater than 30 µM.

Consider `Cc1cc(NC(=O)c2ccc(F)c(C(F)(F)C(=O)NC3CCC(C(=O)O)CC3)c2)ccc1F` (stereo not shown) [Example 235, (1r,4r)-4-(2,2-difluoro-2-(2-fluoro-5-((4-fluoro-3-methylphenyl)carbamoyl)phenyl)acetamido)cyclohexane-1-carboxylic acid], for which, in data set [1], the EC50 was 5 to 30 µM. The CC50 at 7 days in data set [2] is greater than 30 µM.

`Cc1cc(NC(=O)c2ccc(F)c(C(F)(F)C(=O)NC34CCC(NC(=O)OC(C)(C)C)(CC3)C4)c2)ccc1F` [Example 252, tert-butyl (4-(2,2-difluoro-2-(2-fluoro-5-((4-fluoro-3-methylphenyl)carbamoyl)phenyl)acetamido)bicyclo[2.2.1]heptan-1-yl)carbamate]: in data set [1], the EC50 lay in the range of 5 to 30 µM. In data set [2], the CC50 at 7 days was less than 5 µM.
